From US20090312349A1, “ANTI-INFLAMMATORY MEDICAMENTS” (priority 2004, published 2009) come the findings set out here.

This experiment concerns the target T1, phospho p-38 alpha kinase (Homo sapiens, UniProt Q16539).
T1 construct: purchased Panvera
Put plainly: P-38 alpha kinase assay (spectrophotometric, pyruvate kinase/lactate dehydrogenase coupled). It is filed as biochemical. As to conditions: Table 5; for IC50: assay not named, read-out: uM. As for the experimental part: In this assay, the oxidation of NADH was continuously measured spectrophometrically. […] The reaction was initiated by adding ATP. The absorption at 340 nm was monitored continuously for up to 4 hours at 30° C. on Polarstar Optima plate reader (BMG). The kinase activity (reaction rate) was calculated from the slope at the time frame from 1.5 h to 2 h.
For inhibition determinations, test compounds were incubated with the reaction mixture for ˜5 min before adding ATP to start the reaction. […] IC50 values were calculated from a series of % inhibition values determined at a range of concentrations of each inhibitor using Prism to process the data and fit inhibition curves. Generally, the rates obtained at the time frame of 1.5 h to 2 h were used for these calculations.

T1 sequence (Q16539 whole entry): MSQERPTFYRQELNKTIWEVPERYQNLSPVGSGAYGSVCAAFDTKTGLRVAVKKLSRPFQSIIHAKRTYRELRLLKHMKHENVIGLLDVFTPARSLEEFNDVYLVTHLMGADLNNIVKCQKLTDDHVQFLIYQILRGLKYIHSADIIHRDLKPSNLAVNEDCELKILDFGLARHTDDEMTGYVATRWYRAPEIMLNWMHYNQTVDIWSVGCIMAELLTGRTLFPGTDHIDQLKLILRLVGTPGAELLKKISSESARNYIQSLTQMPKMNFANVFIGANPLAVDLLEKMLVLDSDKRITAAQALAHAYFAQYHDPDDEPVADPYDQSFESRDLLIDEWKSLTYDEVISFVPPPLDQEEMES

As for `CC(C)c1cc(NC(=O)Nc2cccc3ccccc23)n(-c2cccc(C(C)(C)O)c2)n1` [Example 333, 1-{1-[3-(2-hydroxypropan-2-yl)phenyl]-3-isopropyl-1H-pyrazol-5-yl}-3-(naphthalen-1-yl)urea], the IC50 was 2.44 µM.

With `CCOC(=O)c1ccc(-n2nc(C(C)C)cc2NC(=O)Nc2ccc(Cl)cc2)cc1` [Example 334, ethyl 4-{5-[3-(4-chlorophenyl)ureido]-3-isopropyl-1H-pyrazol-1-yl}benzoate], the IC50 was 2.2 µM.

For `CC(C)c1cc(NC(=O)Nc2ccc(Cl)cc2)n(-c2ccc(CO)cc2)n1` [Example 335, 1-(4-chlorophenyl)-3-{1-[4-(hydroxymethyl)phenyl]-3-isopropyl-1H-pyrazol-5-yl}-urea], the IC50 is 0.014 µM.

In the case of `CCOC(=O)c1cccc(-n2nc(C(F)(F)F)cc2NC(=O)Nc2cccc3ccccc23)c1` [Example 336], the “% @ concentration, uM” value (@ 10 uM) is reported as 27% @ 10.

Take `CC(C)(O)c1cccc(-n2nc(C(F)(F)F)cc2NC(=O)Nc2cccc3ccccc23)c1` [Example 337]: where the note is “@ 10 uM”, the “% @ concentration, uM” value is recorded as 8% @ 10.

Turning to `CCOC(=O)c1ccc(-n2nc(C(F)(F)F)cc2NC(=O)Nc2ccc(Cl)cc2)cc1` [Example 338, ethyl 4-{5-[3-(4 chlorophenyl)ureido]-3-(trifluoromethyl)-1H-pyrazol-1-yl}benzoate], the “% @ concentration, uM” value (@ 2 uM) is recorded as 7% @ 2.

`O=C(Nc1ccc(Cl)cc1)Nc1cc(C(F)(F)F)nn1-c1ccc(CO)cc1` [Example 339, 1-(4-chlorophenyl)-3-{3-(trifluoromethyl)-1-[4-(hydroxyl-methyl)phenyl]-1H-pyrazol-5-yl}urea]: the “% @ concentration, uM” value (@ 2 uM) worked out at 9% @ 2.

For the molecule `CCOC(=O)c1cccc(-n2nc(C)cc2NC(=O)Nc2cccc3ccccc23)c1` [Example 340, ethyl 3-{3-methyl-5-[3-(naphthalen-1-yl)ureido]-1H-pyrazol-1-yl}benzoate], the “% @ concentration, uM” value (@ 10 uM) is listed as 31% @ 10.

With `CCOC(=O)c1cccc(-n2nc(C)cc2NC(=O)Nc2cccc(Cl)c2Cl)c1` [Example 342, ethyl 3-{5-[3-(2,3-dichlorophenyl)ureido]-3-methyl-1H-pyrazol-1-yl}benzoate], the IC50 worked out at 1 µM.

Turning to `CCOC(=O)c1ccc(-n2nc(C)cc2NC(=O)Nc2ccc(Cl)cc2)cc1` [Example 344, ethyl 4-{5-[3-(4-chlorophenyl)ureido]-3-methyl-1H-pyrazol-1-yl}benzoate], the IC50 was found to be 0.18 µM.

For the molecule `Cc1cc(NC(=O)Nc2ccc(Cl)cc2)n(-c2ccc(CO)cc2)n1` [Example 345, 1-(4-chlorophenyl)-3-{1-[4-(hydroxymethyl)phenyl]-3-methyl-1H-pyrazol-5-yl}urea], the IC50 was 0.27 µM.

For the molecule `CCOC(=O)c1ccc(-n2nc(C)cc2NC(=O)Nc2cccc(Cl)c2Cl)cc1` [Example 346, ethyl 4-{5-[3-(2,3-dichlorophenyl)ureido]-3-methyl-1H-pyrazol-1-yl}benzoate], the “% @ concentration, uM” value by setting is: (@ 0.1 uM) 19%; (@ 1 uM) 63%.

Take `Cc1cc(NC(=O)Nc2cccc(Cl)c2Cl)n(-c2ccc(CO)cc2)n1` [Example 347, 1-(2,3-dichlorophenyl)-3-{1-[4-(hydroxymethyl)phenyl]-3-methyl-1H pyrazol-5-yl}urea]: the “% @ concentration, uM” value by setting is: (@ 0.1 uM) 8%; (@ 1 uM) 31%.

With `Cc1cc(NC(=O)Nc2cccc3ccccc23)n(-c2ccc(C(O)C(F)(F)F)cc2)n1` (stereo not shown) [Example 348, 1-{3-methyl-1-[4-(2,2,2-trifluoro-1-hydroxyethyl)phenyl]-1H-pyrazol-5-yl}-3-(naphthalen-1-yl)urea], the “% @ concentration, uM” value reads like this: (@ 0.1 uM) 17%; (@ 1 uM) 47%.

Consider `CC(C)c1cc(NC(=O)Nc2cccc3ccccc23)n(-c2cccc(C=O)c2)n1` [Example 350, 1-[1-(3-formylphenyl)-3-isopropyl-1H-pyrazol-5-yl]-3-(naphthalen-1-yl)urea], for which the “% @ concentration, uM” value came to 39% (@ 0.1 uM) and 64% (@ 1 uM).

Take `O=C(Nc1cccc(Cl)c1)Nc1cc(-c2ccccc2)nn1-c1cccc(CO)c1` [Example 352, 1-{3-phenyl-1-[3-(hydroxymethyl)phenyl]-1H-pyrazol-5-yl}-3-(3-chlorophenyl)urea]: the IC50 was 0.043 µM.

With `O=C(Nc1cccc(C(F)(F)F)c1)Nc1cc(-c2ccccc2)nn1-c1cccc(CO)c1` [Example 354, 1-{3-phenyl-1-[3-(hydroxymethyl)phenyl]-1H-pyrazol-5-yl}-3-(3-trifluoromethylphenyl)urea], the IC50 worked out at 0.11 µM.

Regarding `COc1cccc(NC(=O)Nc2cc(-c3ccccc3)nn2-c2cccc(CO)c2)c1` [Example 355, 1-{3-phenyl-1-[3-(hydroxymethyl)phenyl]-1H-pyrazol-5-yl}-3-(3-methoxyphenyl)urea], the IC50 amounted to 0.042 µM.

As to `CCOC(=O)c1ccc(-n2nc(C(C)(C)C)cc2NC(=O)Nc2cccc3ccccc23)cc1` [Example 357, ethyl 4-{3-t-butyl-5-[3-(naphthalen-1-yl)ureido]-1H-pyrazol-1-yl}benzoate], the IC50 worked out at 0.13 µM.

In the case of `CC(C)(C)c1cc(NC(=O)Nc2cccc3ccccc23)n(-c2ccc(CO)cc2)n1` [Example 358, 1-{3-t-butyl-1-[4-(hydroxymethyl)phenyl]-1H-pyrazol-5-yl}-3-(naphthalen-1-yl)urea], the IC50 was determined as 0.1 µM.

For `CC(O)c1ccc(-n2nc(C(C)(C)C)cc2NC(=O)Nc2cccc3ccccc23)cc1` (stereo not shown) [Example 360, 1-{3-t-butyl 1-[4-(1-hydroxyethyl)phenyl]-1H-pyrazol-5-yl}-3-(naphthalen-1-yl)urea], the IC50 came to 0.39 µM.

In the case of `C#CC(O)c1ccc(-n2nc(C(C)(C)C)cc2NC(=O)Nc2cccc3ccccc23)cc1` (stereo not shown) [Example 361, 1-{3-t-butyl-1-[4-(1-hydroxyprop-2-ynyl)phenyl]-1H-pyrazol-5-yl}-3-(naphthalen-1-yl)urea], the IC50 turned out to be 0.87 µM.

With `CC(C)(C)c1cc(NC(=O)Nc2cccc(Cl)c2Cl)n(-c2ccc(CO)cc2)n1` [Example 363, 1-{3-t-butyl-1-[(hydroxymethyl)phenyl]-1H-pyrazol-5-yl}-3-(2,3-dichloro-phenyl)urea], the IC50 worked out at 0.19 µM.

On to `CC(C)(C)c1cc(NC(=O)Nc2cccc(Cl)c2Cl)n(-c2ccc(C(C)(C)O)cc2)n1` [Example 364, 1-{3-t-butyl-1-[4-(2-hydroxypropan-2-yl)phenyl]-1H-pyrazol-5-yl}-3-(2,3-dichlorophenyl)urea], for which the IC50 was 0.01 µM.

On to `CC(C)(C)c1cc(NC(=O)Nc2cccc(Cl)c2Cl)n(-c2ccc(C(=O)O)cc2)n1` [Example 365, 4{-3-t-butyl-5-[3-(2,3-dichlorophenyl)ureido]-1H-pyrazol-1-yl}benzoic acid], for which the IC50 was 0.007 µM.

As for `CCOC(=O)c1cccc(-n2nc(C(C)(C)C)cc2NC(=O)Nc2cccc3ccccc23)c1` [Example 366, ethyl 3-{3-t-butyl-5-[3-(naphthalen-1-yl)ureido]-1H-pyrazol-1-yl}benzoate], the “% @ concentration, uM” value (@ 10 uM) worked out at 53% @ 10.

For `CC(C)(C)c1cc(NC(=O)Nc2cccc3ccccc23)n(-c2cccc(CO)c2)n1` [Example 367, 1-{3-t-butyl-1-[3-(hydroxymethyl)phenyl]-1H-pyrazol-5-yl)-3-(naphthalen-1-yl)-urea], for the setting “@ 10 uM”, the “% @ concentration, uM” value is 85% @ 10.

With `CC(C)(C)c1cc(NC(=O)Nc2cccc(Cl)c2Cl)n(-c2cccc(CO)c2)n1` [Example 372, 1-[3-t-butyl-1-(3-hydroxymethyl-phenyl)-1H-pyrazol-5-yl]-3-(2,3-dichlorophenyl)-urea], the IC50 turned out to be 1.46 µM.

`CC(C)(C)c1cc(NC(=O)Nc2cccc(Cl)c2Cl)n(-c2cccc(C(=O)O)c2)n1` [Example 374, 3-{3-t-butyl-5-[3-(2,3-dichlorophenyl)ureido]-1H-pyrazol-1-yl}benzoic acid]: the IC50 stood at 0.037 µM.

With `CC(C)(C)c1cc(NC(=O)Nc2ccc(Cl)cc2)n(-c2cccc(CO)c2)n1` [Example 376], the IC50 worked out at 0.48 µM.

In the case of `CC(C)(C)c1cc(NC(=O)Nc2ccc(Cl)cc2)n(-c2cccc(CN3C(=O)NC(=O)C3=O)c2)n1` [Example 378, 1-{3-t-butyl-2-{3-[(2,4,5-trioxoimidazolidin-1-yl)methyl]phenyl}-1H-pyrazol-3-yl}-3-(4-chlorophenyl)urea], the IC50 came out at 0.4 µM.

On to `CC(C)(C)c1cc(NC(=O)Nc2ccc(Cl)cc2)n(-c2cccc(CN3C(=O)C(=O)NS3(=O)=O)c2)n1` [Example 380, 1-{5-t-butyl-2-[3-(1,1,3,4-tetraoxo-1λ^6-[1,2,5]thiadiazolidin-2-ylmethyl)phenyl]-2H-pyrazol-3-yl}-3-(4-chlorophenyl)urea], for which the IC50 turned out to be 2 µM.

Consider `CC(C)(C)c1cc(NC(=O)Nc2cccc3ccccc23)n(-c2cccc(CNC(=O)N3CCOCC3)c2)n1` [Example 382, 1-(3-t-butyl-1-{3-[(morpholine-4-carboxamido)methyl]phenyl}-1H-pyrazol-5-yl)-3-(naphthalen-1-yl)urea], for which the IC50 was found to be 0.88 µM.

For `CC(C)(C)c1cc(NC(=O)Nc2cccc3ccccc23)n(-c2cccc(CNC(=O)N3CCCC3)c2)n1` [Example 383, 1-(3-t-butyl-1-{3-[(pyrrolidine-1-carboxamido)methyl]phenyl}-1H-pyrazol-5-yl)-3-(naphthalen-1-yl)urea], the IC50 is 0.1 µM.

`CN(C)C(=O)NCc1cccc(-n2nc(C(C)(C)C)cc2NC(=O)Nc2cccc3ccccc23)c1` [Example 384, 1-{3-t-butyl-1-[3-(3,3-dimethylureidomethyl)phenyl]-1H-pyrazol-5-yl}-3-(naphthalen 1-yl)urea]: the “% @ concentration, uM” value runs as follows: (@ 1 uM) 72%; (@ 10 uM) 96%.
